Source: patent US20240108006A1, “PESTICIDALLY ACTIVE HETEROAROMATIC COMPOUNDS” (SYNGENTA CROP PROTECTION AG, priority 2021, published 2024)

tested on: Chilo suppressalis; experiment: Example B1: Chilo suppressalis (striped rice stemborer), artificial diet, L2 larvae; format: in vivo; settings: 144 h, application rate of 200 ppm, 6 days after infestation, read-out: control in at least one of the three categories (mortality, anti-feedant effect, or growth inhibition)
Procedure: Example B1: Chilo suppressalis (Striped Rice Stemborer)
24-well microtiter plates with artificial diet were treated with aqueous test solutions prepared from 10,000 ppm DMSO stock solutions by pipetting. After drying, the plates were infested with L2 larvae (6-8 per well). The samples were assessed for mortality, anti-feeding effect, and growth inhibition in comparison to untreated samples 6 days after infestation. Control of Chilo suppressalis by a test sample is given when at least one of the categories mortality, anti-feedant effect, and growth inhibition is higher than the untreated sample.

SMILES | percent control (mortality, anti-feedant effect or growth inhibition) at 200 ppm
Cc1cc(NC(=O)N[C@@H](C)c2ncnn2-c2ncccn2)c(Cl)cc1F [Example P385, 1-(2-chloro-4-fluoro-5-methyl-phenyl)-3-[(1S)-1-(2-pyrimidin-2-yl-1,2,4-triazol-3-yl)ethyl]urea] | ≥ 80%
C[C@H](NC(=O)Nc1ccc(F)cc1C(F)(F)F)c1ncnn1-c1ncccn1 [Example P116, 1-[4-fluoro-2-(trifluoromethyl)phenyl]-3-[(1S)-1-(2-pyrimidin-2-yl-1,2,4-triazol-3-yl)ethyl]urea] | ≥ 80%
C[C@H](NC(=O)Nc1ccc(F)cc1C(C)(F)F)c1ncnn1-c1ncccn1 [Example P45, 1-[2-(1,1-difluoroethyl)-4-fluoro-phenyl]-3-[(1S)-1-(2-pyrimidin-2-yl-1,2,4-triazol-3-yl)ethyl]urea] | ≥ 80%
Cc1cc([N+](=O)[O-])c(C)cc1NC(=O)N[C@@H](C)c1ncnn1-c1ncccn1 [Example P323, 1-(2,5-dimethyl-4-nitro-phenyl)-3-[(1S)-1-(2-pyrimidin-2-yl-1,2,4-triazol-3-yl)ethyl]urea] | ≥ 80%
Cc1cc(F)c(C(F)(F)F)cc1NC(=O)N[C@@H](C)c1ncnn1-c1ncccn1 [Example P297, 1-[4-fluoro-2-methyl-5-(trifluoromethyl)phenyl]-3-[(1S)-1-(2-pyrimidin-2-yl-1,2,4-triazol-3-yl)ethyl]urea] | ≥ 80%
Cc1cc(Cl)ncc1NC(=O)N[C@@H](C)c1ncnn1-c1ncccn1 [Example P318, 1-(6-chloro-4-methyl-3-pyridyl)-3-[(1S)-1-(2-pyrimidin-2-yl-1,2,4-triazol-3-yl)ethyl]urea] | ≥ 80%
C[C@H](NC(=O)Nc1cc2c(cc1Br)CCC(=O)N2)c1ncnn1-c1ncccn1 [Example P322, 1-(6-bromo-2-oxo-3,4-dihydro-1H-quinolin-7-yl)-3-[(1S)-1-(2-pyrimidin-2-yl-1,2,4-triazol-3-yl)ethyl]urea] | ≥ 80%
Cc1cc(Br)ccc1NC(=O)N[C@@H](C)c1ncnn1-c1ncccn1 [Example P106, 1-(4-bromo-2-methyl-phenyl)-3-[(1S)-1-(2-pyrimidin-2-yl-1,2,4-triazol-3-yl)ethyl]urea] | ≥ 80%
C[C@H](NC(=O)Nc1cc(Cl)c(F)cc1F)c1ncnn1-c1ncccn1 [Example P379, 1-(5-chloro-2,4-difluoro-phenyl)-3-[(1S)-1-(2-pyrimidin-2-yl-1,2,4-triazol-3-yl)ethyl]urea] | ≥ 80%
Cc1cc(Br)ncc1NC(=O)N[C@@H](C)c1ncnn1-c1ncccn1 [Example P342, 1-(6-bromo-4-methyl-3-pyridyl)-3-[(1S)-1-(2-pyrimidin-2-yl-1,2,4-triazol-3-yl)ethyl]urea] | ≥ 80%
C[C@H](NC(=O)Nc1cc2c(cc1Br)CCC2)c1ncnn1-c1ncccn1 [Example P303, 1-(6-bromoindan-5-yl)-3-[(1S)-1-(2-pyrimidin-2-yl-1,2,4-triazol-3-yl)ethyl]urea] | ≥ 80%
C[C@H](NC(=O)Nc1cc(F)c(Br)cc1F)c1ncnn1-c1ncccn1 [Example P339, 1-(4-bromo-2,5-difluoro-phenyl)-3-[(1S)-1-(2-pyrimidin-2-yl-1,2,4-triazol-3-yl)ethyl]urea] | ≥ 80%
Cc1cc(C)c(N2CCCC2=O)cc1NC(=O)N[C@@H](C)c1ncnn1-c1ncccn1 [Example P212, 1-[2,4-dimethyl-5-(2-oxopyrrolidin-1-yl)phenyl]-3-[(1S)-1-(2-pyrimidin-2-yl-1,2,4-triazol-3-yl)ethyl]urea] | ≥ 80%
COc1cc(S(C)(=O)=O)c(NC(=O)N[C@@H](C)c2ncnn2-c2ncccn2)cc1Cl [Example P192, 1-(5-chloro-4-methoxy-2-methylsulfonyl-phenyl)-3-[(1S)-1-(2-pyrimidin-2-yl-1,2,4-triazol-3-yl)ethyl]urea] | ≥ 80%
C[C@H](NC(=O)Nc1cc(Br)c(F)cc1I)c1ncnn1-c1ncccn1 [Example P371, 1-(5-bromo-4-fluoro-2-iodo-phenyl)-3-[(1S)-1-(2-pyrimidin-2-yl-1,2,4-triazol-3-yl)ethyl]urea] | ≥ 80%
Cc1cc(F)c(C#N)cc1NC(=O)N[C@@H](C)c1ncnn1-c1ncccn1 [Example P296, 1-(5-cyano-4-fluoro-2-methyl-phenyl)-3-[(1S)-1-(2-pyrimidin-2-yl-1,2,4-triazol-3-yl)ethyl]urea] | ≥ 80%
C[C@@H](c1ncnn1-c1ncccn1)N1CCCN(c2cc(OC(F)(F)C(F)F)c(Cl)cc2Cl)C1=O [Example P311, 1-[2,4-dichloro-5-(1,1,2,2-tetrafluoroethoxy)phenyl]-3-[(1S)-1-(2-pyrimidin-2-yl-1,2,4-triazol-3-yl)ethyl]hexahydropyrimidin-2-one] | ≥ 80%
C[C@H](NC(=O)Nc1cc(C(F)(F)F)c(Cl)cc1F)c1ncnn1-c1ncccn1 [Example P393, 1-[4-chloro-2-fluoro-5-(trifluoromethyl)phenyl]-3-[(1S)-1-(2-pyrimidin-2-yl-1,2,4-triazol-3-yl)ethyl]urea] | ≥ 80%
COc1cc(C)c(NC(=O)N[C@@H](C)c2ncnn2-c2ncccn2)cc1F [Example P378, 1-(5-fluoro-4-methoxy-2-methyl-phenyl)-3-[(1S)-1-(2-pyrimidin-2-yl-1,2,4-triazol-3-yl)ethyl]urea] | ≥ 80%
Cc1cc2c(cc1NC(=O)N[C@@H](C)c1ncnn1-c1ncccn1)OCO2 [Example P344, 1-(6-methyl-1,3-benzodioxol-5-yl)-3-[(1S)-1-(2-pyrimidin-2-yl-1,2,4-triazol-3-yl)ethyl]urea] | ≥ 80%
COc1cc(NC(=O)N[C@@H](C)c2ncnn2-c2ncccn2)c(Br)cc1Cl [Example P294, 1-(2-bromo-4-chloro-5-methoxy-phenyl)-3-[(1S)-1-(2-pyrimidin-2-yl-1,2,4-triazol-3-yl)ethyl]urea] | ≥ 80%
Cc1cc(NC(=O)N[C@@H](C)c2ncnn2-c2ncccn2)c(C)cc1F [Example P295, 1-(4-fluoro-2,5-dimethyl-phenyl)-3-[(1S)-1-(2-pyrimidin-2-yl-1,2,4-triazol-3-yl)ethyl]urea] | ≥ 80%
